Among the data in the METLIN SMRT retention time set (Domingo-Almenara et al. 2019) are RP-LC retention time values, retold here.

This series is described as follows: gradient 5% acetonitrile 3 min, to 50% in 2 min, to 85% in 15 min, held 3 min, 100 µL/min. The settings on record: column: Zorbax Extend-C18 2.1 x 50 mm; eluents: water / acetonitrile, 0.1% formic acid. An outline of the steps: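 The system's dead and dwell volumes were 40 μL and 900 μL, with a Zorbax Extend-C18 column (2.1 × 50 mm, 1.8 μm) run at 100 μL/min in water and acetonitrile containing 0.1% formic acid each. Pure standards were analyzed in mixtures of ~100 molecules by HPLC–quadrupole time-of-flight mass spectrometry in positive and negative ionization mode. Retention time was assigned from computationally picked, manually inspected adduct peaks.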
Consider `Cn1nc(C(=O)N2CCCC(C(=O)NC3CC3)C2)c2c1CCN(C(=O)c1ccccc1Cl)C2` (stereo not drawn), for which the RP-LC retention time worked out at 648 s. Next, `Cn1nc(-c2nc(Cc3ccccc3)no2)c2c1CCN(C(=O)C1CCCO1)C2` (stereo not drawn): 777 s. The same measure for `CCc1noc(NC(C)=O)c1-c1ccc(C)c(S(=O)(=O)N2CC=C(c3ccccc3)CC2)c1`: 1020 s; for `O=C(C1=CN(c2cccc(F)c2)c2cc(F)ccc2S1(=O)=O)N1CCOCC1`: 755 s; for `COc1cccc(CNC(=O)C2(C)CCCN(C(=O)Nc3ccccc3Cl)C2)c1` (stereo not drawn): 919 s. The same measure for `Cc1cc(C)cc(NC(=O)Cn2c(=O)c3cc(C4CC4)nn3c3ncccc32)c1`: 837 s; for `COCc1cc(=O)n(CC(=O)Nc2ccccc2C)c(N)n1`: 603 s. The molecule `COc1cc(OC)cc(N2C(=O)C3N=NN(Cc4nc(-c5ccccc5)no4)C3C2=O)c1` (stereo not drawn) yielded an RP-LC retention time of 959 s. The same measure for `COCCNC(=O)C1CCc2sc(C(=O)N3CCCCCC3)cc2C1` (stereo not drawn): 682 s; for `CCN(C(=O)Nc1ccccc1C(F)(F)F)c1nc(-c2ccc(C)cc2)cs1`: 576 s; for `Cc1cc(C)cc(S(=O)(=O)Nc2ccc3nc(N4CCN(C)CC4)cc(C(=O)O)c3c2)c1`: 612 s. The same measure for `Cc1cccc(CNC(=O)C2(C)Cn3cnc(C(=O)NC4CCCC4)c3C(=O)N2C2CC2)c1` (stereo not drawn): 767 s; for `Cc1ccc(NC(=O)N2CCN(C(=O)N3C[C@H]4C[C@H](C3)[C@H]3CCCC(=O)N3C4)CC2)cc1C`: 698 s; for `O=C(Nc1cc(F)ccc1F)N1CCc2nc(-c3ccc(F)cc3)ncc2C1`: 985 s.

`Cc1ccc(N2C(=O)CN(CCc3cccs3)[C@H]3CS(=O)(=O)C[C@H]32)cc1C` returned an RP-LC retention time of 865 s. The same measure for `O=C(NCC(c1cccs1)S(=O)(=O)c1cccs1)NC1CCCCC1` (stereo not drawn): 790 s; for `CC1CCN(S(=O)(=O)c2cc(-c3nnc(C(C)C)o3)co2)CC1`: 964 s; for `CC(CCc1ccccc1)NC(=O)Cc1nnc(-c2ccc3ncccc3c2)o1` (stereo not drawn): 761 s. Next, `CN1C(=O)CCCCC1C(=O)NCc1cccs1` (stereo not drawn): 637 s.

Consider `Cc1ccccc1CNC(=O)c1cn(-c2ccc(-c3nc(C4CC4)no3)cn2)cn1`, for which the RP-LC retention time was found to be 973 s. As to `COCCc1noc(C2CN(S(=O)(=O)c3ccc(C#N)cc3)C2)n1`, the RP-LC retention time came to 768 s. The same measure for `CCOc1ccc(NC(=O)Cn2c(=O)n(-c3ccccc3)c(=O)c3c2cc(C)n3C)cc1`: 832 s. The same measure for `O=C(c1cccs1)N1CCC2(CC1)NC(=O)N(Cc1cccc(Cl)c1)C2=O`: 810 s. Next, `Cc1ccccc1CNC(=O)c1nnc(-c2ccc(S(=O)(=O)N3CCC(C)CC3)cc2)o1`: 1100 s; `CCOc1ccc(NC(=O)NCCn2c(C(F)(F)F)nc3cccnc32)cc1`: 756 s; `Cc1cccc(C)c1NC(=O)N1CCCC1c1nncn1C1CCCC1` (stereo not drawn): 722 s.

`COc1ccc2c(c1)C1(CCN(S(=O)(=O)c3cccc(Cl)c3)C1)C(=O)N2` (stereo not drawn) gave an RP-LC retention time of 866 s. Next, `O=C(NC1CCSC1=O)c1ccc(-n2cccn2)nn1` (stereo not drawn): 657 s. Next, `COC(=O)c1ccc(CSc2nnc(N3CCN(c4ccccc4OC)CC3)s2)o1`: 894 s; `Cc1ccc(NC(=O)Cn2cnc3c(sc4nc(-c5ccccc5)ccc43)c2=O)cc1`: 859 s. The same measure for `O=C(Nc1ccc(Br)cc1F)C1CCCN(S(=O)(=O)Cc2ccc(F)cc2)C1` (stereo not drawn): 1040 s.

`Cc1noc(C)c1S(=O)(=O)N1CCC(n2nc(-c3ccccc3)nc2C)C1` (stereo not drawn) had an RP-LC retention time of 806 s. Next, `CC(C)NC(=O)c1ccc(-c2nc3cc(NS(=O)(=O)Cc4ccccc4)ccc3n2C)cc1`: 667 s; `COc1cc(NC(=O)Cn2cnc3c(sc4nc(-c5ccccc5)ccc43)c2=O)cc(OC)c1`: 996 s.

In the case of `Cc1ccnc(NC(=O)C2CCN(S(=O)(=O)c3cc(C(=O)N4CCCCCC4)cs3)CC2)c1`, the RP-LC retention time stood at 638 s.

With `COC(=O)N1CCc2ccccc2C1C(=O)NCCCn1ccnc1` (stereo not drawn), the RP-LC retention time turned out to be 556 s. Next, `O=C([C@@H]1C[C@H](F)CN1C(=O)c1cc(F)ccc1F)N1CCCCC1`: 700 s; `CCOCCCNC(=O)N1CCOc2ccc(CN(CC)CC)cc2C1`: 591 s. The same measure for `CC(=O)Oc1cc2c(C(=O)NCc3ccccn3)c(C)oc2c2ccccc12`: 638 s. The same measure for `O=C(Nc1ccc(-n2cnc(C(=O)N3CCC4(CC3)OCCO4)c2)nc1)C1CC1`: 631 s; for `O=C(CSc1nnc(-c2ccncc2)o1)Nc1cccc([N+](=O)[O-])c1`: 669 s; for `O=C(NCc1ccccc1)C1CCN(S(=O)(=O)c2cc(C(=O)N3CCCC3)cs2)CC1`: 760 s. The molecule `O=C(NC1CCCC1)C1CCCN(S(=O)(=O)c2c[nH]c(C(=O)N3CCCC3)c2)C1` (stereo not drawn) returned an RP-LC retention time of 698 s. Next, `CC(C)(C)C(=O)N1CC(c2nc(-c3ccc(F)cc3)no2)C2(CCOCC2)C1` (stereo not drawn): 964 s; `Cc1nc2ncnn2c(N2CCCC2)c1C`: 648 s. Next, `COc1cccc(N2CCN(c3ccnc(SCC(=O)Nc4ccccc4F)n3)CC2)c1`: 789 s; `Clc1ccc(-c2ccc(CNCc3ccncc3)o2)c(Cl)c1`: 742 s. Next, `CC1(O)CCOC2(CCN(Cc3cn[nH]c3-c3ccccc3)CC2)C1` (stereo not drawn): 584 s; `CCOc1cccc2c1OC1(C)CC2NC(=O)N1c1cccc(C(=O)NCc2ccccn2)c1` (stereo not drawn): 607 s; `CCN1CCCn2cc(S(=O)(=O)Nc3ccc(F)cc3Cl)cc2C1=O`: 738 s. The molecule `CSc1cccc(NC(=O)C2CCN(c3cnc4nc(C)c(C)nc4c3)CC2)c1` gave an RP-LC retention time of 758 s.

Molecule `Cc1ccc(NC(=O)N2CCCC(C)(C(=O)NCc3ccc(F)cc3)C2)c(Cl)c1` (stereo not drawn) yielded an RP-LC retention time of 1010 s.

Molecule `COc1cc(OC)c(NC(=O)N2CCc3cn(C)c4cccc(c34)C2)cc1Cl` displayed an RP-LC retention time of 887 s. The same measure for `Cc1ccc(CN2CC(CO)C3(CCNCC3)C2)cc1C` (stereo not drawn): 551 s. The same measure for `CC(C)c1ccc(Nc2c(-c3ccc(N(C)C)cc3)nc3ncccn23)cc1`: 820 s; for `Cn1nc(-c2nnc(-c3ccc(F)cc3)o2)c2c1CCN(S(=O)(=O)c1cc(F)ccc1F)C2`: 958 s; for `COc1ccccc1/C=C/c1nc(-c2ccc3oc(C)nc3c2)no1`: 1080 s. Next, `O=C(Cn1nc(N2CCSCC2)c2ccccc2c1=O)Nc1cccc(Cl)c1`: 1010 s; `Cc1nnc(CNC(=O)Cc2csc(Nc3ncccn3)n2)o1`: 560 s; `CCCN1C(=O)COc2cc(-c3noc(C(=O)NCCCc4ccccc4)n3)ccc21`: 1090 s. Molecule `CCc1ccc(S(=O)(=O)N2CCC(n3cnnc3C3CC3)CC2)cc1` returned an RP-LC retention time of 772 s.

`CC(C)c1ccc(CNC(=O)CN2CCc3ccccc3C2C(=O)N2CCCC2)cc1` (stereo not drawn) came in with an RP-LC retention time of 908 s. Next, `CCN(Cc1ccc(F)cc1)Cc1cc(=O)c2cccc(F)c2[nH]1`: 594 s. For `CCOc1ccc(-n2nc(-c3nc(-c4ccncc4)no3)c3ccccc3c2=O)cc1`, the RP-LC retention time worked out at 1090 s. In turn, `CCN1CCCn2cc(S(=O)(=O)Nc3ccccc3F)cc2C1=O` had an RP-LC retention time of 687 s. Turning to `CCN1C(=O)c2cccnc2Sc2cc(NC(=O)c3ccn(CC)n3)ccc21`, the RP-LC retention time is 738 s.

As to `COc1ccc(OC)c(CNC(=O)C2CCCN(c3nnc4c(Cl)cccn34)C2)c1` (stereo not drawn), the RP-LC retention time stood at 722 s.

As to `COc1ccc(Cl)c2c(=O)c3c([nH]c12)CCN(CC(=O)Nc1cccc(Cl)c1)C3`, the RP-LC retention time is 645 s. Next, `CCn1cc(C(=O)Nc2cccc(C)c2C)c2cccnc21`: 854 s; `CCOC(=O)C(=O)NCc1nnnn1C1CCCCC1`: 655 s. In turn, `CC1(C)CC(=O)C2=C(C1)Nc1ccccc1N(CC(=O)NC1CCCC1)C2c1ccc(F)cc1` (stereo not drawn) showed an RP-LC retention time of 863 s. Regarding `COC(=O)c1ncn2c1C(=O)N(Cc1ccccc1)C(C)(C(=O)NC1CCCCC1)C2` (stereo not drawn), the RP-LC retention time was 750 s. As for `Cc1ccc(Cn2c(C)c(CNCc3ccco3)c(C(=O)O)c2C)cc1`, the RP-LC retention time came out at 666 s. In turn, `COc1ccccc1CNC(=O)Cn1nc2cc(-c3ccccc3)nc(C)n2c1=O` displayed an RP-LC retention time of 705 s. The same measure for `COc1ccc(OC)c(CNC(=O)C2CCCN(c3cnc4nccnc4c3)C2)c1` (stereo not drawn): 710 s; for `COc1cccc2cc(C(=O)N3CCN(c4ccccn4)CC3)oc12`: 576 s; for `COc1ccc(-c2ncc3c(=O)n(Cc4cccc(OC)c4)c(=O)n(C)c3n2)cc1`: 1130 s.

In the case of `O=C(c1ccco1)N1[C@H]2CC[C@@H]1c1cnc(-c3ccc(F)cc3)nc1C2`, the RP-LC retention time is 858 s.
